Results on three molecules are retold here after patent US6525022B1, “Receptor specific atrial natriuretic peptides” (Genentech, Inc., priority 1993, dated 2003).

Where two headings read alike, the source gives them in different places. Where a SMILES comes first, the peptide text is derived from it. Bridges are numbered along the chain shown (N, C = ends).

The target of series [1] is T1, human natriuretic peptide receptor-A expressed in 293 cells (Homo sapiens, UniProt P16066).
T1 construct: expressed in transfected cells
T1 sequence (P16066 33-1061): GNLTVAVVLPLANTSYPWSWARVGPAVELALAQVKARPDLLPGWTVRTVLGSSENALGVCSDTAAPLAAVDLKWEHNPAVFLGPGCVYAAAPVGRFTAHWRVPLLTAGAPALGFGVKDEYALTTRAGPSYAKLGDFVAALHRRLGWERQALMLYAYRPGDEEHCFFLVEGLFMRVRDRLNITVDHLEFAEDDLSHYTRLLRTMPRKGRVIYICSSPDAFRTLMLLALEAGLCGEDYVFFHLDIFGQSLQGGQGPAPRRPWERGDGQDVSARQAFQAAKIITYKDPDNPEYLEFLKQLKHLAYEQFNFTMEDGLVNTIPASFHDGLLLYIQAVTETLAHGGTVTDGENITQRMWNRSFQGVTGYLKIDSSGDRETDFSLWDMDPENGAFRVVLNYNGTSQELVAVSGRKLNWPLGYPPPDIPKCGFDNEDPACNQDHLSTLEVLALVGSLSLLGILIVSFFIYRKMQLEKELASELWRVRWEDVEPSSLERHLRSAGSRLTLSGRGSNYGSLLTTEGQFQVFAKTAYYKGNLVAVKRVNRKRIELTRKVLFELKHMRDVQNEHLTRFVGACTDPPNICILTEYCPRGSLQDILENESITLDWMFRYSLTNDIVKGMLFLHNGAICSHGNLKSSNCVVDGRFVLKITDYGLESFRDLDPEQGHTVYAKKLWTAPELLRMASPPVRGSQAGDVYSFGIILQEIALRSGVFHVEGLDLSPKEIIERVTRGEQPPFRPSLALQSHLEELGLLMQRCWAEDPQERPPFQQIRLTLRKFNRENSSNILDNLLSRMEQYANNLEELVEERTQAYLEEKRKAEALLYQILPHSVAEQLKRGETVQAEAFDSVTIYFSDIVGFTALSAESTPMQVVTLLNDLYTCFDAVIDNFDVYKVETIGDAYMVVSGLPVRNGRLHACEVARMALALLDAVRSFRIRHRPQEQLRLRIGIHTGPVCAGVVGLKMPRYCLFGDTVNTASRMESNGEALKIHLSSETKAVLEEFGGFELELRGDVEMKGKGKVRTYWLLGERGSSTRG
Nature of the series: cGMP production in 293 cells expressing hNPR-A. Format: cell-based. As to the method:
Stable 293 cell lines were maintained in glycine free F-12/Dulbecco's minimal essential medium (50/50, v/v) with 10% dialyzed fetal calf serum, 10 mM Hepes, […] of G418 (Geneticin, GIBCO/BRL), pH 7.2, in a humidified incubator at 37° C. with 7% CO2, 93% air. Cells were passaged using 136.8 mM NaCL, 2.6 mM KCl, 7.9 mM Na2HPO4, 1.4 mM KH2PO4, pH 7.2 (PBS) with 0.5 mM EDTA. For concentration-response experiments log phase cultures of 293 cell lines were passaged to 12 well plates at a density of 2.5×10^5 cells/well. After 48 hours cultures were approximately 50% confluent, and were used for stimulation of cGMP production. Peptide treatments were carried out essentially as described by Lowe and Fendly (1992). Briefly, dried peptide aliquots were resuspended in 0.1% (v/v) acetic acid to a stock concentration of 50 μM, and diluted to 1 μM in F-12/Dulbecco's minimal essential medium (50/50, v/v) with 25 mM Hepes, 0.1% (w/v) bovine serum albumin, 0.1 mM isobutylmethylxanthine at pH 7.2 (stimulation medium). Five-fold serial dilutions were prepared in stimulation medium using polypropylene tubes, then prewarmed to 37° C. before use. Cell culture medium was aspirated prior to adding 0.5 ml of stimulation medium plus peptides to monolayer cultures for 10 minutes at 37° C. Reactions were stopped by addition of 0.5 ml of ice cold 12% trichloroacetic acid to give a final volume of 1 ml. Culture plates were frozen on dry ice and stored at −20° C. prior to assay. For cGMP measurements samples were thawed at room temperature, and processed as described by Koller et al., Science 252:120-123 (1991), for cGMP radioimmunoassay (Biomedical Technologies, Inc). All stimulations were performed in triplicate, and samples were measured in duplicate for cGMP by radioimmumoassay. Predicted peptide concentrations were corrected based on quantitative amino acid analysis of duplicate samples from the same set of peptide aliquots used for the stimulation experiments.
Data analysis. The competition binding curves and cGMP production dose responses were analyzed by the four-parameter logistic equation with the KaleidaGraph™ program (Synergy Software, PA) to obtain estimates of the IC50 or EC50 values. The non linear least-squares curve fitting program SCATPLOT was used to analyze the competition binding curves according to a one-site or two-site binding model for competitor. A two-site binding model is reported when the fit to the data was statistically better (p<0.05) than a one-site fit.

Series [2] concerns the target human NEP (hNEP), endopeptidase 24.11 (Homo sapiens, UniProt P08473). Nature of the series: Degradation of ANF variants by human NEP, half-life by HPLC.
Protocol: The half-life of various ANF variants was measured according to the following procedure.
ANF Solution: An accurately weighed amount of ANF or variant thereof was diluted with HEPES buffer (5 ml of 1 M HEPES Buffer and 0.1 ml of Tween 20 diluted to a 100 ml volume with DI water) to make a 0.5 mg/ml solution.
hNEP/HEPES Solution: 7.5 μl of a 1 mg/ml solution of hNEP (see U.S. Pat. No. 4,960,700) is dissolved in 992.5 μl of HEPES buffer (as described above) and vortex mixed. The resulting mixture is stored in a silylated Eppendorf tube and periodically checked for activity against an ANF peptide standard.
Assay conditions: 150 μl of an ANF solution in the HEPES buffer is diluted with 820 μl HEPES buffer and vortex mixed (1 sec). Careful note of the time is taken as 30 μl of the hNEP/HEPES solution is added and the solution is vortex mixed for 1 sec. and analyzed by periodic removal of constant volume aliquots by the HPLC autosampler. A 2.5 cm×50 cm, C-18 reversed-phase column (15 micron, 300 Å]) was used and elution was achieved by using a shallow gradient of increasing acetonitrile. The elution conditions consisted of a 10% to 50% acetonitrile (containing 0.1% TFA) gradient at 0.5% min.^−1. The aqueous phase was 0.1% TFA in water. The peak area of the ANP peptide is recorded at these periodic intervals and a half-life is determined from these values.
[3] abbreviates: isolated human NEP (endopeptidase 24.11) in HEPES buffer, Half-Life (min.), FIG. 7: ANF variants 32 nM/ml, NEP 0.45 μg/ml.

In general, half-life refers to the time needed for the level to fall by half in the phase considered.

Chain of human NEP (hNEP), endopeptidase 24.11 (P08473 whole entry): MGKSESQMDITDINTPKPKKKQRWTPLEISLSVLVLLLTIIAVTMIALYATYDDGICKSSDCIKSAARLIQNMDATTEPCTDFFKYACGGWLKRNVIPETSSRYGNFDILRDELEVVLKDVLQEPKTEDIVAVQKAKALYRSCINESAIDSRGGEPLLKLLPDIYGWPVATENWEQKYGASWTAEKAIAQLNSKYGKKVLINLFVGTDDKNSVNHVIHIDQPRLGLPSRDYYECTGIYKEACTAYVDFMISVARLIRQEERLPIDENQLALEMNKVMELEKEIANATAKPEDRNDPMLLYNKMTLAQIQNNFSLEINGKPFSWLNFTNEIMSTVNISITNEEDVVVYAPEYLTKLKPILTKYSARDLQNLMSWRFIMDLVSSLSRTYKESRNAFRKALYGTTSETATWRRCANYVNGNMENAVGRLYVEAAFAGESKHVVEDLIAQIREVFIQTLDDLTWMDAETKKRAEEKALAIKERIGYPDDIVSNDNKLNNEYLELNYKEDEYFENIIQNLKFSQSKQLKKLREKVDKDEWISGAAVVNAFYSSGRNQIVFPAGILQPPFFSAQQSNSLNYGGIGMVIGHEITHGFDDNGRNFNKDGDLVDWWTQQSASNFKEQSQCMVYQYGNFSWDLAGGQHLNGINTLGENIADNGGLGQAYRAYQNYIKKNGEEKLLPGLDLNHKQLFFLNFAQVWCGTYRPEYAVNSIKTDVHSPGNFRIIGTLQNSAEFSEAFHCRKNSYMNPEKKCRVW

Turning to `CC[C@H](C)[C@@H]1NC(=O)[C@H](CCCNC(=N)N)NC(=O)[C@H](CC(=O)O)NC(=O)[C@H]([C@@H](C)CC)NC(=O)[C@H](CO)NC(=O)CNC(=O)[C@H]([C@@H](C)O)NC(=O)[C@H](Cc2ccccc2)NC[C@@H](NC(=O)[C@H](CO)NC(=O)[C@H](CO)NC(=O)[C@H](CCCNC(=N)N)NC(=O)[C@H](CCCNC(=N)N)NC(=O)[C@H](CC(C)C)NC(=O)[C@@H](N)CO)CSSC[C@@H](C(=O)N[C@@H](CC(N)=O)C(=O)N[C@@H](CO)C(=O)N[C@@H](Cc2ccccc2)C(=O)N[C@@H](CCCNC(=N)N)C(=O)N[C@@H](Cc2ccc(O)cc2)C(=O)O)NC(=O)CNC(=O)[C@H](CC(C)C)NC(=O)CNC(=O)[C@H](CO)NC(=O)[C@H](CCC(N)=O)NC(=O)[C@H](C)NC(=O)[C@H](CCCNC(=N)N)NC1=O` [ANF 84], in series [1], the “Potency in cGMP production compared with rat ANP” value (“Potency … compared with rat ANP” for short) was “potency very similar to rat ANP” and the “Stimulation of cGMP production (agonist efficacy)” value (from here on “Stimulation of cGMP production”) is on record as “full agonists”. The half-life at 32 nM/ml in series [2] (setting [3]) worked out at 39.9 h.
On to `CC[C@H](C)[C@@H]1NC(=O)[C@H](CCCNC(=N)N)NC(=O)[C@H](CC(=O)O)NC(=O)[C@H]([C@@H](C)CC)NC(=O)[C@H](CO)NC(=O)CNC(=O)[C@H]([C@@H](C)O)NC(=O)[C@H](Cc2ccccc2)NC(=O)[C@@H](NC(=O)[C@H](CO)NC(=O)[C@H](CO)NC(=O)[C@H](CCCNC(=N)N)NC(=O)[C@H](CCCNC(=N)N)NC(=O)[C@H](CC(C)C)NC(=O)[C@H](CO)NC(=O)[C@H](CCCNC(=N)N)NC(=O)[C@@H]2CCCN2C(=O)[C@H](C)NC(=O)[C@@H](N)[C@@H](C)O)CSSC[C@@H](C(=O)N[C@@H](CC(N)=O)C(=O)N[C@@H](CO)C(=O)N[C@@H](Cc2ccccc2)C(=O)N[C@@H](CCCNC(=N)N)C(=O)N[C@@H](Cc2ccc(O)cc2)C(=O)O)NC(=O)CNC(=O)[C@H](CC(C)C)NC(=O)CNC(=O)[C@H](CO)NC(=O)[C@H](CCC(N)=O)NC(=O)[C@H](C)NC(=O)[C@H](CCCNC(=N)N)NC1=O` [ANF 76] (H-TAPRSLRRSSCFTGSIDRIRAQSGLGCNSFRY-OH; disulfide 11-27; C-terminus assumed), for which, in series [1], the “Potency … compared with rat ANP” value is “potency very similar to rat ANP” and the “Stimulation of cGMP production” value is given as “full agonists”. Moreover, in series [2], the half-life at 32 nM/ml stood at 23.5 h.
`CC[C@H](C)[C@@H]1NC(=O)[C@H](CCCNC(=N)N)NC(=O)[C@H](CC(=O)O)NC(=O)[C@H]([C@@H](C)CC)NC(=O)[C@H](CO)NC(=O)CNC(=O)[C@H]([C@@H](C)O)NC(=O)[C@H](Cc2ccccc2)NC(=O)[C@@H](NC(=O)[C@H](CO)NC(=O)[C@H](CO)NC(=O)[C@H](CCCNC(=N)N)NC(=O)[C@H](CCCNC(=N)N)NC(=O)[C@H](CC(C)C)NC(=O)[C@@H](N)CO)CSSC[C@@H](C(=O)N[C@@H](CC(N)=O)C(=O)N[C@@H](CO)C(=O)N[C@@H](Cc2ccccc2)C(=O)N[C@@H](CCCNC(=N)N)C(=O)N[C@@H](Cc2ccc(O)cc2)C(=O)O)NC(=O)CNC(=O)[C@H](CC(C)C)NC(=O)CNC(=O)[C@H](CO)NC(=O)[C@H](CCC(N)=O)NC(=O)[C@H](C)NC(=O)[C@H](CCCNC(=N)N)NC1=O` [ANF 27]: in series [1], the “Potency … compared with rat ANP” value is on record as “potency very similar to rat ANP” and the “Stimulation of cGMP production” value is given as “full agonists”. In series [2] (setting [3]), the half-life at 32 nM/ml came out at 5.57 h.
